From patent US20230416227A1, “PLASMA KALLIKREIN INHIBITORS” (Merck Sharp & Dohme LLC, priority 2020, published 2023)

Experiments:
Human plasma kallikrein = target: T1, Human plasma kallikrein (Homo sapiens, UniProt P03952); experiment: Plasma Kallikrein Assay; assay type: biochemical; details: purified Human plasma kallikrein 0.5 nM, substrate Acetyl-K-P-R-AFC, pH 7.4
T1 construct: yields a heavy chain (371 amino acids) and a light chain (248 amino acids); purchased Enzyme Research Laboratories
T1 sequence (P03952 391-638 limits assumed): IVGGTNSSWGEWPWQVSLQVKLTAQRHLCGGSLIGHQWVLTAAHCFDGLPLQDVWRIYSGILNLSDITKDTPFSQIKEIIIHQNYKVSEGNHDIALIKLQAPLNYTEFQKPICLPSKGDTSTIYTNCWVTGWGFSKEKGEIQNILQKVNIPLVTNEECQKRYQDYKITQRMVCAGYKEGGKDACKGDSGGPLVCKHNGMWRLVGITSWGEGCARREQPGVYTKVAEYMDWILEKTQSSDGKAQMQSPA
T1 sequence (P03952 20-390 partner limits assumed): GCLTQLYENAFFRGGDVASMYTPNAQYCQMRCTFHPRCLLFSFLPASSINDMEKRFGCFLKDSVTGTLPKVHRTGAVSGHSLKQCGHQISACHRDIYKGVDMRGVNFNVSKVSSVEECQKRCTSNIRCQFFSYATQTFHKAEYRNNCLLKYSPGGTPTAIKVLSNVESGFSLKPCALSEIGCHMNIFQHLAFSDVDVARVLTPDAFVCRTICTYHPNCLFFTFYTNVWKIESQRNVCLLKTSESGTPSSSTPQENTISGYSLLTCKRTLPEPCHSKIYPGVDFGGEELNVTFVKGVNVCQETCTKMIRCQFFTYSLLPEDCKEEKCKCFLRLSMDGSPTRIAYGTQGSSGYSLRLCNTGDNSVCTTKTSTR

human factor XIa = human factor XIa (Homo sapiens, UniProt P03951); experiment: Factor XIa Assay; assay type: biochemical; details: human factor XIa 0.04 nM, substrate GPR-AFC, 30 min pre-incubation at 25° C., pH 7.4; read-out: FXIa IC50
Chain of human factor XIa (P03951 388-625 limits assumed): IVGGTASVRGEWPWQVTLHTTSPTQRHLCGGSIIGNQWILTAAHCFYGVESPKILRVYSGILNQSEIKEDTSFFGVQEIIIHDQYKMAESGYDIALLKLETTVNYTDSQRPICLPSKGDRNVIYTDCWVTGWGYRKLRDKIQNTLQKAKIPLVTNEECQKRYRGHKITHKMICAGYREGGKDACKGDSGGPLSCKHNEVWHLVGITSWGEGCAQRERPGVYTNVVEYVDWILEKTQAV
Chain of human factor XIa (P03951 19-387 partner limits assumed): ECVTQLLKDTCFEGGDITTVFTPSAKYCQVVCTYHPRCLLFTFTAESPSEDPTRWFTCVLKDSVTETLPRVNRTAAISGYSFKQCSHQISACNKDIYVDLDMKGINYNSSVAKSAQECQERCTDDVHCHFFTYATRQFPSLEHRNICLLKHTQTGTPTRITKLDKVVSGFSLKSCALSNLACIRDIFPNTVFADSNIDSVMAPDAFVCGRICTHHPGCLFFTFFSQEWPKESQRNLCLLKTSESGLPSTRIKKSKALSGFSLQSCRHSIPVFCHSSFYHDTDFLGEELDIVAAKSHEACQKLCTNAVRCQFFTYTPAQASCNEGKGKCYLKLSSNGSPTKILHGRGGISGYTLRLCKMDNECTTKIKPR
Description: The effectiveness of a compound of the present invention as an inhibitor of Coagulation factor XIa can be determined using a relevant purified serine protease, and an appropriate synthetic substrate. The rate of hydrolysis of the chromogenic or fluorogenic substrate by the relevant serine protease was measured both in the absence and presence of compounds of the present invention. Assays were conducted at rt or at 37° C. […] A decrease in the rate of fluorescence change in the presence of inhibitor is indicative of enzyme inhibition. Such methods are known to one skilled in the art. The results of this assay are expressed as the half-maximal inhibitory concentrations (IC50), or the inhibitory constant, Ki.
Compounds were pre-incubated for 30 min at 25° C. with human (0.04 nM) factor XIa in 50 mM HEPES buffer with 150 mM sodium chloride, 5 mM calcium chloride, 0.1% PEG 8000, pH 7.4. factor XIa enzymatic activity was determined by addition of the substrate glycine-proline-arginine-7-amido-4-trifluoromethylcoumarin (GPR-AFC) and measurement of the fluorescence at 400/505 nm after a 60 min incubation at 25° C. The % inhibition for each data point was calculated from the data and analyzed using the log (inhibitor) vs. response four parameters equation to determine the half-maximal inhibitory concentrations (IC50). The IC50 were converted to equilibrium inhibitory constants (Ki) using the Cheng-Prusoff equation.

| SMILES | IC50 (Human plasma kallikrein) | IC50 (human factor XIa) |
| --- | --- | --- |
| CC(c1cnc(N2Cc3cnn(C)c3C2)nc1)n1cc(NC(=O)c2cncc(-c3c(C(F)F)ccc(Cl)c3F)n2)cn1 (stereo not drawn) [Example 94, 6-(3-Chloro-6-(difluoromethyl)-2-fluorophenyl)-N-(1-(1-(2-(1-methyl-4,6-dihydropyrrolo[3,4-c]pyrazol-5(1H)-yl)pyrimidin-5-yl)ethyl)-1H-pyrazol-4-yl)pyrazine-2-carboxamide] | 20 nM | 8.23 µM |
| O=C(Nc1cnn([C@H](CO)c2cnc(N3CCC3)nc2)c1)c1cncc(-c2c(C(F)F)ccc(Cl)c2F)n1 (single isomer, unassigned) [Example 7] | 52.1 nM | 1.42 µM |
| CC(c1cnc(N2Cc3cccnc3C2)nc1)n1cc(NC(=O)c2cncc(-c3c(C(F)F)ccc(Cl)c3F)n2)cn1 (stereo not drawn) [Example 83, 6-(3-Chloro-6-(difluoromethyl)-2-fluorophenyl)-N-(1-(1-(2-(5,7-dihydro-6H-pyrrolo[3,4-b]pyridin-6-yl)pyrimidin-5-yl)ethyl)-1H-pyrazol-4-yl)pyrazine-2-carboxamide] | 9.4 nM | 8.08 µM |
| O=C(Nc1cnn(Cc2cnc(N3CCC3)cn2)c1)c1cncc(-c2c(C(F)F)ccc(Cl)c2F)n1 [Example 13, N-(1-((5-(Azetidin-1-yl)pyrazin-2-yl)methyl)-1H-pyrazol-4-yl)-6-(3-chloro-6-(difluoromethyl)-2-fluorophenyl)pyrazine-2-carboxamide] | 7.2 nM | 1.84 µM |
| C[C@@H](c1cnc(N2C[C@@H]3C[C@@H]3[C@@H]2CO)nc1)n1cc(NC(=O)c2cncc(-c3c(C(F)F)ccc(Cl)c3F)n2)cn1 (single isomer, unassigned) [Example 74, 6-(3-Chloro-6-(difluoromethyl)-2-fluorophenyl)-N-(1-((S or R)-1-(2-((1S,2R,5R or 1R,2S,5S)-2-(hydroxymethyl)-3-azabicyclo[3.1.0]hexan-3-yl)pyrimidin-5-yl)ethyl)-1H-pyrazol-4-yl)pyrazine-2-carboxamide] | 4.3 nM | 1.02 µM |
| NCC1CCCN1c1ncc(Cn2cc(NC(=O)c3cncc(-c4c(C(F)F)ccc(Cl)c4F)n3)cn2)cn1 (stereo not drawn) [Example 81, N-(1-((2-(2-(Aminomethyl)pyrrolidin-1-yl)pyrimidin-5-yl)methyl)-1H-pyrazol-4-yl)-6-(3-chloro-6-(difluoromethyl)-2-fluorophenyl)pyrazine-2-carboxamide] | 7.4 nM | 3.94 µM |

More lines, now with the values ahead:

| IC50 (Human plasma kallikrein) | IC50 (human factor XIa) | SMILES |
| --- | --- | --- |
| 1 nM | 5.19 µM | CC(c1cnc(N2CC[C@H]2CN2CC[C@H](O)C2)nc1)n1cc(NC(=O)c2cncc(-c3c(C(F)F)ccc(Cl)c3F)n2)cn1 (stereo partly drawn) [Example 162, 6-(3-Chloro-6-(difluoromethyl)-2-fluorophenyl)-N-(1-(1-(2-((S)-2-(((S)-3-hydroxypyrrolidin-1-yl)methyl)azetidin-1-yl)pyrimidin-5-yl)ethyl)-1H-pyrazol-4-yl)pyrazine-2-carboxamide] |
| 31.2 nM | 7.64 µM | C[C@@H](c1cnc(N2CC(C)(F)C2)nc1)n1cc(NC(=O)c2cncc(-c3c(C(F)F)ccc(Cl)c3F)n2)cn1 [Example 101, (S)-6-(3-Chloro-6-(difluoromethyl)-2-fluorophenyl)-N-(1-(1-(2-(3-fluoro-3-methylazetidin-1-yl)pyrimidin-5-yl)ethyl)-1H-pyrazol-4-yl)pyrazine-2-carboxamide] |
| 0.4 nM | 2.17 µM | O=C(Nc1cnn(Cc2cnc(N3CCC[C@H]3CN3CC[C@@H](O)C3)nc2)c1)c1cncc(-c2c(C(F)F)ccc(Cl)c2F)n1 [Example 142, 6-(3-Chloro-6-(difluoromethyl)-2-fluorophenyl)-N-(1-((2-((S)-2-(((R)-3-hydroxypyrrolidin-1-yl)methyl)pyrrolidin-1-yl)pyrimidin-5-yl)methyl)-1H-pyrazol-4-yl)pyrazine-2-carboxamide] |
